The values below come from patent US20040157798A1, “Drug for use in bone grafting” (priority 2001, published 2004).

SMILES strings stand for the structures.

The assay deals with 10 mm tibial defect model in rabbits. Kind of assay: 10 mm tibial defect model in rabbits with calcium sulphate (Osteoset) cylinder; pQCT scans and radiographs. The format is in vivo, NZW rabbit. As to conditions: for BMC / BMD / Polar Moment / Total Bone Area: 6 weeks; for Total Bone Area: CT slice at centre of defect. The source says:
The following example outlines the process by which the effects of bisphosphonates on potentiating new bone formation in a graft may be observed. In this regard, the effects on bone mineralisation and the mechanical properties are observed in a 10 mm tibial defect model in rabbits.
The present experiment uses an 8-week-old NZW rabbit model. A 10 mm gap is surgically removed from the tibiae of the rabbits. The bones are held with a M-100 external fixator.
Cylinders of calcium sulphate (Osteoset) were prepared on the day of surgery. Moulds were prepared using a combination of 1.0 ml and 3.0 ml syringes, and the Osteoset poured into the moulds in a sterile environment. The cylinders were removed from the moulds at 12 minutes, and allowed to dry in air for 90 minutes, followed by final drying in a microwave for 30 seconds. Once dry, the cylinders were formed into a standard dimension of 10 mm length, with an external diameter of 9 mm and with a 3 mm diameter internal core. The cylinders weighed 0.80.9 g. The cylinders were stored in sterile environment until required.
At the commencement of the operative procedure 0.15 ml of saline, or 0.15 ml of zoledronic acid (0.05 mg/kg) was adsorbed onto a calcium sulphate cylinder, which was then replaced into the sterile container.
The operative field was prepared by shaving with clippers, disinfected with povidone iodine 4% w/v in 70% alcohol. The right tibia was exposed sub-periosteally along its length and four 3 mm Orthofix pins inserted. An M-100 monolateral external fixator (Orthofix S.L.R) was applied. A 10 mm piece of mid-diaphyseal tibia was removed using an oscillating saw, along with the central 10 mm of periosteum. A calcium sulphate cylinder was then placed in the defect, and held by slight compression of the external fixator.
The animals were randomised such that at the time of surgery, 24 animals had Osteoset cylinders with saline adsorbed inserted, 12 of whom were given saline-only infusions and 12 of whom were given 0.1 mg/kg zoledronic acid infusion at the time of surgery and again on day 14. A further 12 animals had Osteoset cylinders with 0.15 ml of zoledronic acid (0.05 mg/kg) adsorbed inserted, and given a saline only infusion. Note that in the third leg the zoledronic acid was administered to the site via the cylinder, and not directly.
Animals were culled at 28 days (18 animals) and at 42 days (18 animals) with IV pentobarbitone 150 mg/kg.
[…]. CT scans were performed at 28 days (18 animals) and at 42 days (18 animals) using a Stratec XCT Research SA pQCT scanner.

Setting [1] is: IV ZA 0.1 mg/kg at surgery and day 14.
[2] abbreviates: Local ZA 0.05 mg/kg adsorbed on cylinder.

On to `O=P(O)(O)C(O)(Cn1ccnc1)P(=O)(O)O` [ZA, 1-hydroxy-2-[(1H-imidazol-1-yl)ethylidine]bisphosphonic acid], for which the “Bone area increase over controls” value is recorded as 131% (4 weeks, IV ZA group) and 216% (4 weeks, Local ZA group). In addition, the “Polar moment of inertia increase over controls” value (shortened to “Polar moment of inertia increase”) (4 weeks, IV ZA group) stood at 104%; the “Polar moment of inertia increase” value (4 weeks, Local ZA group) is listed as 316%; the “Polar moment of inertia increase” value (six weeks, Local ZA group) is on record as 40%. In addition, the BMC is reported as 45.9 (20.7) mg/mm under setting [1] and 45.0 (5.4) mg/mm under setting [2]. Also, the BMD is, setting by setting: under setting [1], 784.6 (97.7) mg/cm^3; under setting [2], 676.2 (49.3) mg/cm^3. The “Polar Moment” value under setting [1] is 442.8 (585.2) mm^4 and the “Polar Moment” value under setting [2] is 1343.1 (254.7) mm^4. Also, the “Total Bone Area” value (IV ZA 0.1 mg/kg infusion at surgery and day 14) was 58.0 (23.2) mm^2; the “Total Bone Area” value (Local ZA 0.05 mg/kg adsorbed on calcium sulphate cylinder) was 66.6 (7.9) mm^2. Further, for the setting “six weeks, local bisphosphonate group, not significant”, the “Cross sectional area increase over controls” value is recorded as 20%.
